# Reference: ChEMBL document CHEMBL3988442, “University of Dundee, Small-Polar-MMV Screening Library” (2021)
# Several values for one entry are separate records, joined by “and”; a condition that tells them apart may be missing. Equal entries are not always repeated.
# Experiments:
# Proteasome subunit beta = target: T1, Proteasome subunit beta (Trypanosoma cruzi, UniProt O96673); test: Trypanosoma cruzi proteasome chymotrypsin-like activity (TcProtChymo) assay.; type: functional
# T1 sequence (O96673 whole entry): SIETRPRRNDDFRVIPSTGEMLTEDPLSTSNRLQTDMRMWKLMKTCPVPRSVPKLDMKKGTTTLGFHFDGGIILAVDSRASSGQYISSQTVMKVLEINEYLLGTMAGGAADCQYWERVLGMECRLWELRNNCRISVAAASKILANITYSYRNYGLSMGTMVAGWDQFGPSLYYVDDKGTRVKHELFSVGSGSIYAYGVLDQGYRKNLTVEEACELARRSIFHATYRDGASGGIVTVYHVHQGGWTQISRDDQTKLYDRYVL
# [1] = Trypanosoma cruzi proteasome luciferase counter-screen; type: functional, N/A
# [2] = To identify inhibition of the IFN signalling (Jak-Stat) pathway via expression of an eGFP reporter gene under the control of an IFN-stimulated response element (ISRE) containing MxA promoter.; type: functional, Homo sapiens
# Schistosoma mansoni = test: High throughput screening of compounds against Schistosoma mansoni motility; type: functional; parameters: dose or concentration left out as unconfirmed
# Leishmania donovani = test: Leishmania intramacrophage assay; type: functional, organism-based; details: for IC50: Leishmania donovani
# [3] = In vitro enzyme assay to detect hydrolysis of chlorophenol red-beta-D-[…] directly proportional to the number of Toxoplasma stably expressing beta-galactosidase; type: functional, organism-based, Toxoplasma gondii; details: Toxoplasma gondii
# [4] = target: Chromo domain-containing protein 1 (Saccharomyces cerevisiae (strain ATCC 204508 / S288c) (Baker's yeast), UniProt P32657); test: ScCHD-1 Enzyme Inhibition Assay; type: functional
# [5] = target: AMP-activated protein kinase, AMPK; test: AMP-dependent Kinase enzyme assay. An in vitro enzyme assay that detects ADP turnover that is directly proportional to AMPK activity. This uses naive AMPK that is activated during the assay with MK-8722; type: functional, Homo sapiens
# Trypanosoma brucei = test: Trypanosoma brucei 72 hour study; type: functional, organism-based
# Plasmodium falciparum = test: Calibr Malaria Delayed Death Assay SOP; type: functional, organism-based
# ClpP1P2 = ClpP1P2 (Mycobacterium tuberculosis (strain ATCC 25618 / H37Rv), UniProt P9WPC3+P9WPC5); test: in vitro assay to detect presence of AMC directly proportional to the activity of ClpP1P2. GHDDI collaboration.; type: functional
# Chain of ClpP1P2 (P9WPC5 whole entry): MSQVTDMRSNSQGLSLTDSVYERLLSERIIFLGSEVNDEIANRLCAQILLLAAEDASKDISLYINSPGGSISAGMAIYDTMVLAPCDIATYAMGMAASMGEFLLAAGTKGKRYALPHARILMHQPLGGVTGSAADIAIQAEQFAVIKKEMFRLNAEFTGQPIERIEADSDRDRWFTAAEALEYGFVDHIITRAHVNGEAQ
# Chain of ClpP1P2 (P9WPC3 whole entry): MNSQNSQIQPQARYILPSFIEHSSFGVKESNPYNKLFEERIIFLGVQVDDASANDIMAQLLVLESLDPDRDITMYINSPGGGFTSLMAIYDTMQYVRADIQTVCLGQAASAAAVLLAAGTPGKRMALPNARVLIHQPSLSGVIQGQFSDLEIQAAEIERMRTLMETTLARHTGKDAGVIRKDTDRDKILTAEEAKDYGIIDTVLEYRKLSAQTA
# Chain of Chromo domain-containing protein 1 (P32657 whole entry, the tested form may be a part): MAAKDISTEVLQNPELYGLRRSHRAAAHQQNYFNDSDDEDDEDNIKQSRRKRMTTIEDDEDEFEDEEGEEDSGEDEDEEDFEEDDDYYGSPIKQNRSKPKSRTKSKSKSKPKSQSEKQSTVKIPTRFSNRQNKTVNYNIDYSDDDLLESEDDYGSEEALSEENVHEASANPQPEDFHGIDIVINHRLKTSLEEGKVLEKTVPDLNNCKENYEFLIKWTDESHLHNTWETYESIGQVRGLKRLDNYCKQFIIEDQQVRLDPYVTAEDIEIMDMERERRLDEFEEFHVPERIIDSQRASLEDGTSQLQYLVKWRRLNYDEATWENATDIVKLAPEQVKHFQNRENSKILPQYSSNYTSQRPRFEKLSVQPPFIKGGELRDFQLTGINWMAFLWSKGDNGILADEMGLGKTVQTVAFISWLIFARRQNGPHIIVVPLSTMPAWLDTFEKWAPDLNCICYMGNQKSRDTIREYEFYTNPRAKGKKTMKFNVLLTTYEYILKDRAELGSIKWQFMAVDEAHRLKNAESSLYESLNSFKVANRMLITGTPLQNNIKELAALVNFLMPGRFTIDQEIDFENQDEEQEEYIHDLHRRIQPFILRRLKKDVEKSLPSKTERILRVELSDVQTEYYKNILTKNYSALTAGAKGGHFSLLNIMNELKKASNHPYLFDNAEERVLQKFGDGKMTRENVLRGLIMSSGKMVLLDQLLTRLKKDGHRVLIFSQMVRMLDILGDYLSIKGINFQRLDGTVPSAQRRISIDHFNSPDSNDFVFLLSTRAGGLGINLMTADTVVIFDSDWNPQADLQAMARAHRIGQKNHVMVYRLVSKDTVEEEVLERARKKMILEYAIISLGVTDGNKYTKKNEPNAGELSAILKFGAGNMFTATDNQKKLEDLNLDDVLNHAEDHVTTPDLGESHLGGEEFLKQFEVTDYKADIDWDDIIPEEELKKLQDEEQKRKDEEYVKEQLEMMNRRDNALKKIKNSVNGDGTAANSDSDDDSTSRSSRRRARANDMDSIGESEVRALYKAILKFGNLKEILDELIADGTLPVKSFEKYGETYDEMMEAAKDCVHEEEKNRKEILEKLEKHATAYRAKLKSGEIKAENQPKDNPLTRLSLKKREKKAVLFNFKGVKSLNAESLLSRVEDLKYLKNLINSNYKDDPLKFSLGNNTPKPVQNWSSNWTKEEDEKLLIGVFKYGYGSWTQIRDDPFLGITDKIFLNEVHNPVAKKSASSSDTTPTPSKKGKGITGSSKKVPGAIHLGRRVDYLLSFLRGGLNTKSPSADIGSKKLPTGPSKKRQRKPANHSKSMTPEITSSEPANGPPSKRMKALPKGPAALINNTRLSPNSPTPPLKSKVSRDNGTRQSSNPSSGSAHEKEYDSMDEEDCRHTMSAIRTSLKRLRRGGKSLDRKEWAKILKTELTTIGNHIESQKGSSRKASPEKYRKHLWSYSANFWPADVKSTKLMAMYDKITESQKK
SMILES,IC50 (Proteasome subunit beta),pIC50 [1],pIC50 [2],further results
O=C(Nc1ccc(F)c(Br)c1)N1CCCC1,11.4 µM and 11.2 µM,< 4,,
NC(=O)c1nc(COc2ccc3c(c2)OCO3)no1,8.85 µM and 10.5 µM,< 4,,
CN1C(=O)C(C)(C)COc2cc(NS(=O)(=O)Cc3ccccc3)ccc21,,,< 4.21 and 4.593,Percent Effect (Schistosoma mansoni): 31.95%
COc1cccc(C(=O)NCC(O)c2cccs2)c1 (stereo unspecified),16.9 µM and 18.4 µM,4.037 and < 4,,Percent Effect (Schistosoma mansoni): -12.61%
CC(C)c1cc2c(O)nc(CSCC(=O)O)nc2s1,7.28 µM and 8.24 µM,4.494 and 4.54,,
COc1cccc(-c2nc(C)c(C(=O)NC(CO)CCSC)s2)c1 (stereo unspecified),27.3 µM and 32.3 µM,4.212,,
COc1ccccc1CNC(=O)C1=NN(c2ccc(C)cc2)C(=O)CN1,,,4.606 and 4.808,pIC50 (Leishmania donovani): < 4.3 and 4.742; IC50 [3]: 10.8 µM
O=C(c1cn(-c2ccccc2Cl)nn1)N1CCCSCC1,14.2 µM and 16.4 µM,4.282 and 4.315,,
CNC(=O)c1cnc(/C=C/c2ccc(OC)c(O)c2)s1,17.4 µM and 13.8 µM,4.132 and < 4,,
CCCC(NC(=O)c1cc(C)n(C2CC2)c1C)c1nnn[nH]1 (stereo unspecified),55.7 µM and 67.9 µM,< 4,,
CCc1nc(COc2ccc(OCc3cnn(C)c3)cc2)no1,12.3 µM and 13.3 µM,4.267 and 4.334,,
Cc1cnn(CC2CCCN2CC(=O)N(C)Cc2ccc(C)o2)c1 (stereo unspecified),> 100 µM,< 4,,
Cn1cc(-c2csc(N3CCN(C(=O)OC(C)(C)C)CC3)n2)cn1,,,4.669 and 4.891,Percent Effect (Schistosoma mansoni): -8.994%
Cc1ccc(-c2cc(C(=O)NC(C)C(=O)N3CCCCC3)on2)cc1 (stereo unspecified),26.1 µM and 26.7 µM,4.246 and 4.264,,
CN(C(=O)Cc1ccc(NC(=O)NC2CCC2)cc1)c1ccccc1,> 100 µM,< 4,,
COc1cc(CN(C)C(=O)Cc2c(C)nn(C)c2C)ccc1OC(F)F,,,5.786 [middle of 4 runs],Percent Effect (Schistosoma mansoni): -34.16%

SMILES,IC50 (Proteasome subunit beta),pIC50 [1],pIC50 [2],further results
N#Cc1c(F)cccc1N1CCN(S(=O)(=O)c2cccs2)CC1,,,4.537 and 4.564,IC50 [4]: > 29.5 µM; Percent Effect (Schistosoma mansoni): 35.72%
CC(C1CC1)N(C)C(=O)c1cnc(-c2ccc3c(c2)OCO3)s1 (stereo unspecified),13.7 µM and 13.1 µM,4.375 and 4.324,,Percent Effect (Schistosoma mansoni): 12.48%
Cc1cnn(CC2CN(c3ncnc4ccsc34)CCO2)c1 (stereo unspecified),,,5.764 [middle of 4 runs],IC50 (Leishmania donovani): > 50.1 µM
O=C(CC1CN(Cc2ccccc2)CCO1)Nc1ccccc1F (stereo unspecified),12.6 µM and 13.6 µM,4.434 and 4.445,,
CC(C)n1ccc(-c2cc(C(=O)N3CCCC3)c3ccccn23)n1,,,< 4.21,pIC50 [5]: < 4
Cn1cccc1C(=O)N1CCC2(CC1)CN(c1cncnc1)C(=O)CO2,> 100 µM,< 4,,
Cc1nc[nH]c1CN(C)CC1CCCN(CCc2ccc(Cl)cc2)C1 (stereo unspecified),,,4.612 and 4.41,"pIC50 (Trypanosoma brucei): 5.168 and 5.164; IC50 (Trypanosoma brucei; Trypanosoma brucei, 72 h): 6.79 µM; pIC50 (Plasmodium falciparum): 6.162; IC50 (Plasmodium falciparum; Plasmodium falciparum): 0.565 µM; pIC50 (Leishmania donovani): 5.148; IC50 (Leishmania donovani): 8.56 µM; Percent Effect (Schistosoma mansoni): 102.7%"
Cc1cc(C(=O)N2CCC3(CCCN(CC4CC4)C3=O)C2)c(C)n1C (stereo unspecified),> 100 µM and 85.7 µM,< 4,,
COCC1CCCN(C(=O)c2cc(Cn3ccc4ccccc43)[nH]n2)C1 (stereo unspecified),,,< 4.21,IC50 [4]: > 29.5 µM and 18.8 µM
CC(C)=CCN1C[C@H]2CC[C@@H]1CN(C(=O)c1c[nH]c(=O)c(Cl)c1)C2,> 100 µM,< 4,,
O=C(c1ccc(C2CCCO2)s1)N1Cc2ccccc2C1 (stereo unspecified),16.1 µM and 11.4 µM,4.241 and < 4,,
COc1cccc(CN2CCN(c3ccc4nncn4n3)C(C)C2)c1 (stereo unspecified),,,4.923 and 4.922,
CNS(=O)(=O)Cc1ccc(CNc2cncc(-n3cccn3)n2)cc1,10.5 µM and 10.6 µM,4.398 and 4.427,,IC50 (ClpP1P2): > 100 µM
COc1ncccc1NC(=O)N(Cc1ccc(C)o1)C1CC1,,,4.53 and 4.637,
CCOCCCn1c(NC(=O)c2scnc2C)nc2ccccc21,,,4.523 and 4.463,IC50 [4]: > 29.5 µM
